Measurements published in US20240109900A1, “AZABICYCLIC SHP2 INHIBITORS” (IRBM S.P.A., priority 2021, published 2024).
Like-named read-outs stand apart in the source and are kept apart here.

Columns and labels:
[1] = molecular target: SHP-2 enzyme (Met1-Leu525) (Homo sapiens (Human), UniProt Q06124); assay: SHP2 inhibition enzymatic assay; type: biochemical; conditions: 0.5 nM SHP-2 activated by 500 nM IRS1 peptide, 75 μM DiFMUP substrate; read-out: SHP2wt-IC50
Summary of the method: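 Compounds were preincubated 30 min with 0.5 nM SHP-2 (Met1-Leu525) plus 500 nM IRS1 activating peptide (pH 7.2 HEPES, 5 mM DTT), then 75 μM DiFMUP substrate reacted 30 min at room temperature. After bpV quench, DiFMUP fluorescence gave % inhibition; four-parameter logistic fit yielded IC50.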

[2] = system: ERK phosphorylation in KYSE-520 cells; assay: Phospho-ERK cellular assay; type: cell-based; conditions: KYSE-520 cells, 2 h at 37° C., phospho-ERK1/2 (Thr202/Tyr204) TR-FRET, read-out: PERK IC50
Summary of the method: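 TR-FRET read-out of ERK1/2 Thr202/Tyr204 phosphorylation was taken after overnight antibody incubation at room temperature. Before that, KYSE-520 cells were treated 2 h at 37 °C with compound dilutions and lysed 30 min. Percent inhibition relative to vehicle and cell-free wells was fitted four-parametrically to give IC50.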

Chain of SHP-2 enzyme (Met1-Leu525) (Q06124 1-525): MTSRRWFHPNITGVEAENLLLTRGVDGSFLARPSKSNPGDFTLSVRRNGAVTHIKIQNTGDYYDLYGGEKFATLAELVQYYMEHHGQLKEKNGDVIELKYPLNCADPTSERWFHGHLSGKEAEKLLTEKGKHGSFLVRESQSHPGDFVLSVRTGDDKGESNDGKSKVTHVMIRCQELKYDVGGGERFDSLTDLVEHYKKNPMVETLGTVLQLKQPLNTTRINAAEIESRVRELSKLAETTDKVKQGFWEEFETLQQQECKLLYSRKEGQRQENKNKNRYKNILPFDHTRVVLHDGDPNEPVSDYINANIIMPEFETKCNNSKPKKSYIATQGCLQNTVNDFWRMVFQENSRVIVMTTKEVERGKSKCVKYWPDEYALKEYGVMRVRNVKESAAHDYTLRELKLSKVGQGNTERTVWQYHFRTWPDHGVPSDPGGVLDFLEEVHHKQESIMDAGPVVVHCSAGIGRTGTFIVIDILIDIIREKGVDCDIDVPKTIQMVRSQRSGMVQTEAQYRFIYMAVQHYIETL

Compound | IC50 [1] | IC50 ([2]; Homo sapiens, KYSE-520, 2 h) | IC50 [2]
Cc1cc([C@@]2(CN)[C@@H]3CCN(c4cnc5c(-c6csc7ncccc67)n[nH]c5n4)C[C@@H]32)no1 [Example 113, ((1S,6R,7S)-7-(5-methylisoxazol-3-yl)-3-(3-(thieno[2,3-b]pyridin-3-yl)-1H-pyrazolo[3,4-b]pyrazin-6-yl)-3-azabicyclo[4.1.0]heptan-7-yl)methanamine] | < 500 nM | < 1000 nM | –
NCC1(c2ccccn2)C2CCN(c3cnc4c(-c5cccc(Cl)c5Cl)n[nH]c4n3)CC21 (stereo not shown) [Example 82, (3-(3-(2,3-dichlorophenyl)-1H-pyrazolo[3,4-b]pyrazin-6-yl)-7-(pyridin-2-yl)-3-azabicyclo [4.1.0]heptan-7-yl)methanamine] | < 500 nM | < 1000 nM | –
NC[C@]1(c2ccccc2F)[C@@H]2CCN(c3cnc4c(-c5ccc6cn[nH]c(=O)c6c5)n[nH]c4n3)C[C@@H]21 [Example 254, 7-(6-((1S,6R,7R)-7-(aminomethyl)-7-(2-fluorophenyl)-3-azabicyclo[4.1.0]heptan-3-yl)-1H-pyrazolo[3,4-b]pyrazin-3-yl)phthalazin-1(2H)-one] | < 500 nM | < 1000 nM | –
Cc1csc(C2(CN)C3CCN(c4cnc5c(-c6cccc(Cl)c6Cl)n[nH]c5n4)CC32)n1 (stereo not shown) [Example 77, (3-(3-(2,3-dichlorophenyl)-1H-pyrazolo[3,4-b]pyrazin-6-yl)-7-(4-methylthiazol-2-yl)-3-azabicyclo[4.1.0]heptan-7-yl)methanamine] | < 500 nM | < 1000 nM | –
CN1C(=O)C(F)(F)c2c1ccc(-c1n[nH]c3nc(N4CC[C@@H]5[C@H](C4)[C@@]5(CN)c4ccccc4F)cnc13)c2Cl [Example 362, 5-(6-((1S,6R,7R)-7-(aminomethyl)-7-(2-fluorophenyl)-3-azabicyclo[4.1.0]heptan-3-yl)-1H-pyrazolo[3,4-b]pyrazin-3-yl)-4-chloro-3,3-difluoro-1-methylindolin-2-one] | < 500 nM | < 1000 nM | –
Cc1cc(C(N)=O)ccc1-c1n[nH]c2nc(N3CC[C@@H]4[C@H](C3)[C@@]4(CN)c3ccccc3F)cnc12 [Example 250, 4-(6-((1S,6R,7R)-7-(aminomethyl)-7-(2-fluorophenyl)-3-azabicyclo[4.1.0]heptan-3-yl)-1H-pyrazolo[3,4-b]pyrazin-3-yl)-3-methylbenzamide] | < 500 nM | < 1000 nM | –
NCC1(c2ccc(F)cc2)C2CCN(c3cnc4c(-c5ccc6nccnc6c5)n[nH]c4n3)CC21 (stereo not shown) [Example 11, (7-(4-fluorophenyl)-3-(3-(quinoxalin-6-yl)-1H-pyrazolo[3,4-b]pyrazin-6-yl)-3-azabicyclo[4.1.0]heptan-7-yl)methanamine] | < 500 nM | > 5000 nM | –
Cc1cc([C@@]2(CN)[C@@H]3CCN(c4cnc5c(-c6ccc7nc(C(F)(F)F)ccc7c6)n[nH]c5n4)C[C@@H]32)no1 [Example 150, ((1S,6R,7S)-7-(5-methylisoxazol-3-yl)-3-(3-(2-(trifluoromethyl)quinolin-6-yl)-1H-pyrazolo[3,4-b]pyrazin-6-yl)-3-azabicyclo[4.1.0]heptan-7-yl)methanamine] | < 500 nM | < 1000 nM | –
CC(O)c1ccc(-c2n[nH]c3nc(N4CC[C@@H]5[C@H](C4)[C@@]5(CN)c4ccccc4F)cnc23)c2cccnc12 (stereo partly drawn) [Example 142, 1-(5-(6-((1S,6R,7R)-7-(aminomethyl)-7-(2-fluorophenyl)-3-azabicyclo[4.1.0]heptan-3-yl)-1H-pyrazolo[3,4-b]pyrazin-3-yl)quinolin-8-yl)ethan-1-ol] | < 500 nM | < 1000 nM | –
Cn1ccc(Oc2ccc(-c3n[nH]c4nc(N5CC[C@@H]6[C@H](C5)[C@@]6(CN)c5ccccc5F)cnc34)c(Cl)c2Cl)n1 [Example 215, ((1S,6R,7R)-3-(3-(2,3-dichloro-4-((1-methyl-1H-pyrazol-3-yl)oxy)phenyl)-1H-pyrazolo[3,4-b]pyrazin-6-yl)-7-(2-fluorophenyl)-3-azabicyclo[4.1.0]heptan-7-yl)methanamine] | < 500 nM | < 1000 nM | –
NC[C@]1(c2ccccc2F)[C@@H]2CCN(c3cnc4c(-c5ccc6nn(C7CC7)cc6c5Cl)n[nH]c4n3)C[C@@H]21 [Example 420] | < 500 nM | – | < 1000 nM
NC[C@]1(c2ccccc2F)[C@@H]2CCN(c3cnc4c(-c5ccc(-c6cn[nH]c6)cc5Cl)n[nH]c4n3)C[C@@H]21 [Example 256, ((1S,6R,7R)-3-(3-(2-chloro-4-(1H-pyrazol-4-yl)phenyl)-1H-pyrazolo[3,4-b]pyrazin-6-yl)-7-(2-fluorophenyl)-3-azabicyclo[4.1.0]heptan-7-yl)methanamine] | < 500 nM | < 1000 nM | –
Cc1csc([C@@]2(CN)[C@@H]3CN(c4cnc(Sc5ccnc(N)c5Cl)c(N)n4)C[C@@H]32)n1 [Example 434, 3-((2-amino-3-chloropyridin-4-yl)thio)-6-((1R,5S,6r)-6-(aminomethyl)-6-(4-methylthiazol-2-yl)-3-azabicyclo[3.1.0]hexan-3-yl)pyrazin-2-amine] | < 500 nM | – | < 1000 nM
Cc1c(-c2n[nH]c3nc(N4CC[C@@H]5[C@H](C4)[C@@]5(CN)c4ccccc4F)cnc23)ccn2cnnc12 [Example 211, ((1S,6R,7R)-7-(2-fluorophenyl)-3-(3-(8-methyl-[1,2,4]triazolo[4,3-a]pyridin-7-yl)-1H-pyrazolo[3,4-b]pyrazin-6-yl)-3-azabicyclo[4.1.0]heptan-7-yl)methanamine] | < 500 nM | > 5000 nM | –
Cc1cc(C2(CN)C3CCN(c4cnc5c(-c6ccnc7cccnc67)n[nH]c5n4)CC32)no1 (stereo not shown) [Example 35, (3-(3-(1,5-naphthyridin-4-yl)-1H-pyrazolo[3,4-b]pyrazin-6-yl)-7-(5-methylisoxazol-3-yl)-3-azabicyclo[4.1.0]heptan-7-yl)methanamine] | 500 to 3000 nM | 1000 to 5000 nM | –
CN1Cc2cc(-c3n[nH]c4nc(N5CC[C@@H]6[C@H](C5)[C@@]6(CN)c5ccccc5F)cnc34)ccc2C1=O [Example 244, 5-(6-((1S,6R,7R)-7-(aminomethyl)-7-(2-fluorophenyl)-3-azabicyclo[4.1.0]heptan-3-yl)-1H-pyrazolo[3,4-b]pyrazin-3-yl)-2-methylisoindolin-1-one] | < 500 nM | < 1000 nM | –

More lines, main results first:

IC50 [1] | IC50 ([2]; Homo sapiens, KYSE-520, 2 h) | Compound | IC50 [2]
< 500 nM | < 1000 nM | COc1ccc2cc(-c3n[nH]c4nc(N5CC[C@@H]6[C@H](C5)[C@@]6(CN)c5cc(C)on5)cnc34)cnc2c1 [Example 151, ((1S,6R,7S)-3-(3-(7-methoxyquinolin-3-yl)-1H-pyrazolo[3,4-b]pyrazin-6-yl)-7-(5-methylisoxazol-3-yl)-3-azabicyclo[4.1.0]heptan-7-yl)methanamine] | –
< 500 nM | < 1000 nM | NC[C@]1(c2cc(F)cc(F)c2)[C@@H]2CCN(c3cnc4c(-c5ccc6c(=O)[nH]ccc6c5F)n[nH]c4n3)C[C@@H]21 [Example 306, 6-(6-((1S,6R,7R)-7-(aminomethyl)-7-(3,5-difluorophenyl)-3-azabicyclo[4.1.0]heptan-3-yl)-1H-pyrazolo[3,4-b]pyrazin-3-yl)-5-fluoroisoquinolin-1(2H)-one] | –
> 3000 nM | < 1000 nM | CC(=O)NC[C@]1(c2ccccc2F)[C@@H]2CCN(c3cnc4c(-c5ccc6nn(C)cc6c5)n[nH]c4n3)C[C@@H]21 [Example 383, N-(((1S,6R,7R)-7-(2-fluorophenyl)-3-(3-(2-methyl-2H-indazol-5-yl)-1H-pyrazolo[3,4-b]pyrazin-6-yl)-3-azabicyclo[4.1.0]heptan-7-yl)methyl)acetamide] | –
< 500 nM | < 1000 nM | Cc1nc2ccc(-c3n[nH]c4nc(N5C[C@@H]6[C@H](C5)[C@@]6(CN)c5ccccn5)cnc34)c(Cl)c2s1 [Example 492, ((1R,5S,6r)-3-(3-(7-chloro-2-methylbenzo[d]thiazol-6-yl)-1H-pyrazolo[3,4-b]pyrazin-6-yl)-6-(pyridin-2-yl)-3-azabicyclo[3.1.0]hexan-6-yl)methanamine] | –
< 500 nM | < 1000 nM | Cn1cc2c(Cl)c(-c3n[nH]c4nc(N5C[C@@H]6[C@H](C5)[C@@]6(CN)c5cccc(Cl)n5)cnc34)ccc2n1 [Example 494, ((1R,5S,6r)-3-(3-(4-chloro-2-methyl-2H-indazol-5-yl)-1H-pyrazolo[3,4-b]pyrazin-6-yl)-6-(6-chloropyridin-2-yl)-3-azabicyclo[3.1.0]hexan-6-yl)methanamine] | –
< 500 nM | > 5000 nM | NC[C@]1(c2ccccc2F)[C@@H]2CCN(c3cnc4c(-c5ccc(C(=O)O)c6ccccc56)n[nH]c4n3)C[C@@H]21 [Example 257, 4-(6-((1S,6R,7R)-7-(aminomethyl)-7-(2-fluorophenyl)-3-azabicyclo[4.1.0]heptan-3-yl)-1H-pyrazolo[3,4-b]pyrazin-3-yl)-1-naphthoic acid] | –
< 500 nM | < 1000 nM | NC[C@]1(c2ccccc2F)[C@@H]2CCN(c3cnc4c(-c5cccc(-c6ncco6)c5Cl)n[nH]c4n3)C[C@@H]21 [Example 168, ((1S,6R,7R)-3-(3-(2-chloro-3-(oxazol-2-yl)phenyl)-1H-pyrazolo[3,4-b]pyrazin-6-yl)-7-(2-fluorophenyl)-3-azabicyclo[4.1.0]heptan-7-yl)methanamine] | –
